Test systems include KM12 colon; SK-MEL-5 melanoma; CCRF-CEM leukemia; SK-MEL-2 melanoma; HT29 colon; NCI-H460 lung; EKVX NSCLC; NCI-H23 lung; OVCAR-5 ovarian; MDA-MB-231 breast.
Test in all cases: NCI-60 cell line screen, 48 h

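Assay format: 96-well plates, 48-hour exposure. GI50 marks 50% less growth. TGI is the concentration that stops growth completely.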

As for `CCNC(=O)Oc1ccc(/C(=C(\C)c2ccc(Cl)cc2)c2ccc(OCCN3CCCCC3)cc2)cc1`, the GI50 in the assay on KM12 colon is 3.81 µM; with SK-MEL-5 melanoma, 1.79 µM; in the assay with CCRF-CEM leukemia it was 3.26 µM; in the assay with SK-MEL-2 melanoma, 5.49 µM; in the assay with HT29 colon it was 3.16 µM; in the assay on NCI-H460 lung, 2.19 µM. Further, the GI50 in the assay with EKVX NSCLC was 6.14 µM; in the assay on NCI-H23 lung, 5.1 µM; in the assay with OVCAR-5 ovarian, 11 µM; with MDA-MB-231 breast, 3.55 µM. The TGI in the assay with KM12 colon amounted to 15.4 µM; with SK-MEL-5 melanoma, 3.17 µM; in the assay on CCRF-CEM leukemia, 11.8 µM; with SK-MEL-2 melanoma, 19.2 µM; in the assay on HT29 colon, 10.9 µM; with NCI-H460 lung it was 4.64 µM. The TGI was determined as 21.9 µM with EKVX NSCLC, 19.7 µM in the assay on NCI-H23 lung, 23.8 µM with OVCAR-5 ovarian and 11.5 µM with MDA-MB-231 breast.

On to `COc1cc2c(cc1OC)[C@H]1C(=O)c3cc4c(cc3[C@H]1N(C)C2=O)OCO4`, for which the TGI is above 100 µM in the assay with KM12 colon; above 48.8 µM in the assay on SK-MEL-5 melanoma; 17 µM with CCRF-CEM leukemia; above 100 µM with SK-MEL-2 melanoma; above 100 µM with HT29 colon; above 100 µM in the assay on NCI-H460 lung. The TGI with EKVX NSCLC is above 100 µM; in the assay on NCI-H23 lung, above 74.1 µM; with OVCAR-5 ovarian it was above 100 µM; in the assay on MDA-MB-231 breast, above 100 µM.

For the compound `CC(C)(C)NCCC(O)c1cc(C(F)(F)F)nc2c(C(F)(F)F)cccc12` (stereo not given), the TGI in the assay with KM12 colon is 7.58 µM; with SK-MEL-5 melanoma, 25.5 µM; in the assay on CCRF-CEM leukemia, 30.5 µM; in the assay on SK-MEL-2 melanoma, 24.6 µM; in the assay on HT29 colon it was 20.1 µM; with NCI-H460 lung, 16.8 µM. For the same compound, the TGI in the assay on EKVX NSCLC was 27.2 µM; in the assay on NCI-H23 lung, 9.74 µM; with OVCAR-5 ovarian, 29.3 µM; with MDA-MB-231 breast, 22.8 µM.

`Cc1csc(Nc2nc(-c3cccc(Cl)c3)nc(C(Cl)(Cl)Cl)n2)n1`: the GI50 in the assay on KM12 colon was 1.64 µM; with SK-MEL-5 melanoma it was above 33.3 µM; with CCRF-CEM leukemia it was 21.7 µM; in the assay on SK-MEL-2 melanoma, 25.8 µM; in the assay with HT29 colon, 1.04 µM; in the assay on NCI-H460 lung it was 1.22 µM. The GI50 was 1.25 µM with EKVX NSCLC, 23.7 µM in the assay on NCI-H23 lung, 8.86 µM in the assay with OVCAR-5 ovarian and 2.17 µM with MDA-MB-231 breast. For the same compound, the TGI in the assay with KM12 colon was 6.21 µM; in the assay on SK-MEL-5 melanoma, above 33.3 µM; with CCRF-CEM leukemia it was above 33.3 µM; in the assay on SK-MEL-2 melanoma it was above 33.3 µM; in the assay on HT29 colon, 13.1 µM; with NCI-H460 lung, 5.42 µM. For the same compound, the TGI in the assay on EKVX NSCLC was 6.89 µM; in the assay with NCI-H23 lung it was above 33.3 µM; in the assay with OVCAR-5 ovarian, above 33.3 µM; in the assay on MDA-MB-231 breast, above 33.3 µM.

As to `Cc1nc(C(N)=S)sc1C(=O)CC(=O)C(=O)Nc1cccc(Cl)c1C`, the TGI in the assay on KM12 colon, in the assay on SK-MEL-5 melanoma, with CCRF-CEM leukemia, in the assay on SK-MEL-2 melanoma, in the assay on HT29 colon and with NCI-H460 lung was above 100 µM each time. The TGI in the assay on EKVX NSCLC, in the assay with NCI-H23 lung, with OVCAR-5 ovarian and in the assay with MDA-MB-231 breast was above 100 µM each time.

For `CCSc1nc(N)c2cnn(C)c2n1`, the GI50 in the assay with KM12 colon was 34.6 µM; in the assay with SK-MEL-5 melanoma, 16.1 µM; with CCRF-CEM leukemia, 42.3 µM; in the assay on SK-MEL-2 melanoma, above 100 µM; with HT29 colon it was 58.4 µM; with NCI-H460 lung, 31.6 µM. In addition, the GI50 is 56.7 µM in the assay with EKVX NSCLC, 41.5 µM in the assay on NCI-H23 lung, 49.9 µM in the assay with OVCAR-5 ovarian and 25.1 µM in the assay on MDA-MB-231 breast. For the same compound, the TGI is above 100 µM in the assay on KM12 colon; 38.9 µM in the assay with SK-MEL-5 melanoma; above 100 µM in the assay with CCRF-CEM leukemia; above 100 µM in the assay on SK-MEL-2 melanoma; above 100 µM in the assay with HT29 colon; above 100 µM in the assay with NCI-H460 lung. The TGI in the assay with EKVX NSCLC was above 100 µM; in the assay with NCI-H23 lung, above 100 µM; with OVCAR-5 ovarian it was above 100 µM; in the assay with MDA-MB-231 breast it was 71 µM.

On to `O=[N+]([O-])c1cccc(-c2ncc(-c3ccc(Cl)cc3Cl)[nH]2)c1`, for which the GI50 is 1.75 µM in the assay on KM12 colon; 4.59 µM in the assay with SK-MEL-5 melanoma; 1.49 µM in the assay with CCRF-CEM leukemia; 16.2 µM with SK-MEL-2 melanoma; 1.88 µM in the assay with HT29 colon; 7.26 µM with NCI-H460 lung. The GI50 is 2.15 µM in the assay with EKVX NSCLC, 10.6 µM with NCI-H23 lung, 8.07 µM in the assay on OVCAR-5 ovarian and 11.7 µM in the assay on MDA-MB-231 breast. The TGI in the assay on KM12 colon was 3.41 µM; in the assay with SK-MEL-5 melanoma, 9.23 µM; with CCRF-CEM leukemia it was 4.48 µM; in the assay on SK-MEL-2 melanoma, 41.3 µM; in the assay on HT29 colon it was 4.79 µM; with NCI-H460 lung, 30.2 µM. In addition, the TGI in the assay on EKVX NSCLC was 6.81 µM; in the assay on NCI-H23 lung, 43.7 µM; in the assay on OVCAR-5 ovarian, 23.1 µM; with MDA-MB-231 breast, 30.9 µM.

With `CCCCCCCCCCCCCCCCCC1=NC(C)(C)CN1CCO`, the GI50 in the assay on KM12 colon is 1.78 µM; in the assay on SK-MEL-5 melanoma, 2.16 µM; with CCRF-CEM leukemia, 1.92 µM; in the assay on SK-MEL-2 melanoma, 1.97 µM; with HT29 colon, 1.37 µM; in the assay on NCI-H460 lung it was 1.97 µM. The GI50 with EKVX NSCLC was 3.8 µM; with NCI-H23 lung, 1.71 µM; in the assay with OVCAR-5 ovarian, 1.78 µM; in the assay on MDA-MB-231 breast, 1.77 µM. For the same compound, the TGI with KM12 colon is 3.16 µM; in the assay with SK-MEL-5 melanoma, 4.95 µM; with CCRF-CEM leukemia, 5.05 µM; in the assay on SK-MEL-2 melanoma, 3.63 µM; in the assay with HT29 colon, 2.66 µM; in the assay on NCI-H460 lung, 3.65 µM. The TGI in the assay with EKVX NSCLC amounted to 18.6 µM; in the assay with NCI-H23 lung it was 3.33 µM; in the assay on OVCAR-5 ovarian it was 3.6 µM; with MDA-MB-231 breast, 3.41 µM.

For `CCCCCCN(CCCCCC)CC(O)c1cccc2ccc(Cl)cc12` (stereo not given), the GI50 in the assay on KM12 colon was 5.48 µM; in the assay on SK-MEL-5 melanoma, 2.12 µM; in the assay with CCRF-CEM leukemia, 11.4 µM; in the assay with SK-MEL-2 melanoma, 10.2 µM; with HT29 colon it was 3.86 µM; in the assay on NCI-H460 lung, 6.63 µM. In addition, the GI50 in the assay on EKVX NSCLC is 10.5 µM; in the assay with NCI-H23 lung it was 5.42 µM; with OVCAR-5 ovarian, 2.6 µM; in the assay on MDA-MB-231 breast, 4.18 µM. For the same compound, the TGI with KM12 colon came to 19.6 µM; with SK-MEL-5 melanoma it was 5.17 µM; in the assay on CCRF-CEM leukemia it was 31.7 µM; in the assay on SK-MEL-2 melanoma, 24.6 µM; with HT29 colon it was 18.5 µM; with NCI-H460 lung, 19.6 µM. The TGI with EKVX NSCLC is 25.5 µM; with NCI-H23 lung, 19.5 µM; in the assay with OVCAR-5 ovarian, 13.7 µM; in the assay on MDA-MB-231 breast, 16.2 µM.
